Patent US6417141B1, “Substituted aminouracils” (Bayer Aktiengesellschaft, priority 1995, dated 2002)

Key:
Assay type in all cases: in vivo
Settings in all cases: greenhouse, 125 g/ha a.i., rated after three weeks vs untreated control
Sinapis [1] = assay: Post-emergence test
Method: (§1) Solvent: 5 parts by weight of acetone
(§2) Emulsifier: 1 part by weight of alkylaryl polyglycol ether
(§3) To produce a suitable preparation of active compound, 1 part by weight of active compound is mixed with the stated amount of solvent, the stated amount of emulsifier is added and the concentrate is diluted with water to the desired concentration.
(§4) Test plants which have a height of 5-15 cm are sprayed with the preparation of the active compound in such a way as to apply the particular amounts of active compound desired per unit area.
(§5) After three weeks, the degree of damage to the plants is rated in % damage by comparison with the development of the untreated control.
(§6) 0%=no effect (like untreated control)

Alopecurus [2] = assay: Post-emergence test
Method: as §1, §2, §3, §4, §5, §6

Setaria [3] = assay: Post-emergence test
Method: as §1, §2, §3, §4, §5, §6

Xanthium [4] = assay: Post-emergence test
Method: as §1, §2, §3, §4, §5, §6

Cyperus [5] = assay: Post-emergence test
Method: as §1, §2, §3, §4, §5, §6

Abutilon [6] = assay: Post-emergence test
Method: as §1, §2, §3, §4, §5, §6

Avena [7] = assay: Post-emergence test
Method: as §1, §2, §3, §4, §5, §6

Amaranthus [8] = assay: Post-emergence test
Method: as §1, §2, §3, §4, §5, §6

Galium [9] = assay: Post-emergence test
Method: as §1, §2, §3, §4, §5, §6

Sinapis [10] = assay: Pre-emergence test
Method: as §1, §2
(§7) To produce a suitable preparation of active compound, 1 part by weight of active compound is mixed with a stated amount of solvent, the stated amount of the emulsifier is added and the concentrate is diluted with water to the desired concentration.
(§8) Seeds of the test plants are sown in normal soil. After about 24 hours, the soil is watered with the preparation of the active compound. It is advantageous to keep the amount of water per unit area constant. The concentration of the active compound in the preparation is immaterial, only the amount of active compound applied per unit area matters.
as §5, §6

Alopecurus [11] = assay: Pre-emergence test
Method: as §1, §2, §7, §8, §5, §6

Setaria [12] = assay: Pre-emergence test
Method: as §1, §2, §7, §8, §5, §6

Xanthium [13] = assay: Pre-emergence test
Method: as §1, §2, §7, §8, §5, §6

Cyperus [14] = assay: Pre-emergence test
Method: as §1, §2, §7, §8, §5, §6

Abutilon [15] = assay: Pre-emergence test
Method: as §1, §2, §7, §8, §5, §6

Avena [16] = assay: Pre-emergence test
Method: as §1, §2, §7, §8, §5, §6

Amaranthus [17] = assay: Pre-emergence test
Method: as §1, §2, §7, §8, §5, §6

Galium [18] = assay: Pre-emergence test
Method: as §1, §2, §7, §8, §5, §6

COc1cc(-n2c(=O)cc(C(F)(F)F)n(N)c2=O)c(F)cc1C#N [Example 1, 1-(4-cyano-2-fluoro-5-methoxy-phenyl)-3,6-dihydro-2,6-dioxo-3-amino-4-trifluoromethyl-1(2H)-pyrimidine]
100%: degree of damage to the plants, Sinapis (Sinapis [1]) | degree of damage to the plants, Alopecurus (Alopecurus [2]) | degree of damage to the plants, Setaria (Setaria [3]) | degree of damage to the plants, Xanthium (Xanthium [4]) | degree of damage to the plants, Cyperus (Cyperus [5]) | degree of damage to the plants, Abutilon (Abutilon [6]) | degree of damage to the plants, Avena (Avena [7]) | degree of damage to the plants, Amaranthus (Amaranthus [8]) | degree of damage to the plants, Galium (Galium [9]) | degree of damage to the plants, Sinapis (Sinapis [10]) | degree of damage to the plants, Alopecurus (Alopecurus [11]) | degree of damage to the plants, Setaria (Setaria [12]) | degree of damage to the plants, Xanthium (Xanthium [13]) | degree of damage to the plants, Cyperus (Cyperus [14]) | degree of damage to the plants, Abutilon (Abutilon [15]) | degree of damage to the plants, Avena (Avena [16]) | degree of damage to the plants, Amaranthus (Amaranthus [17]) | degree of damage to the plants, Galium (Galium [18])
